# Results: ChEMBL document CHEMBL1201862, “PubChem BioAssay data set” (2004)
#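 Briefly, cells in 96-well plates were exposed to five compound concentrations for 48 h, and endpoints were estimated by linear interpolation. GI50 is the concentration that inhibits growth by half.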 Calls of active or inactive are those of the source. No stated cut-off is given here; in the data, active = GI50 up to about 1.1 µM and inactive = higher.
# Key:
# Assay in all cases: DTP human tumour cell line panel, 48 h
# 786-0 = system: 786-0
# A549 = system: A549
# ACHN = system: ACHN
# BT-549 = system: BT-549
# CAKI-1 = system: CAKI-1
# CCRF-CEM = system: CCRF-CEM
# COLO 205 = system: COLO 205
# DU-145 = system: DU-145
# EKVX = system: EKVX
# HCC 2998 = system: HCC 2998
# HCT-116 = system: HCT-116
# HCT-15 = system: HCT-15
# HL-60 = system: HL-60
# HOP-62 = system: HOP-62
# HT-29 = system: HT-29
# Hs-578T = system: Hs-578T
# IGROV-1 = system: IGROV-1
# K562 = system: K562
# KM12 = system: KM12
# LOX IMVI = system: LOX IMVI
# M14 = system: M14
# MCF7 = system: MCF7
# MDA-MB-231 = system: MDA-MB-231
# MDA-MB-435 = system: MDA-MB-435
# MDA-N = system: MDA-N
# MOLT-4 = system: MOLT-4
# Malme-3M = system: Malme-3M
# NCI-H226 = system: NCI-H226
# NCI-H23 = system: NCI-H23
# NCI-H460 = system: NCI-H460
# NCI-H522 = system: NCI-H522
# NCI/ADR-RES = system: NCI/ADR-RES
# OVCAR-3 = system: OVCAR-3
# OVCAR-4 = system: OVCAR-4
# OVCAR-5 = system: OVCAR-5
# OVCAR-8 = system: OVCAR-8
# PC-3 = system: PC-3
# RXF 393 = system: RXF 393
# SF-268 = system: SF-268
# SF-295 = system: SF-295
# SF-539 = system: SF-539
# SK-MEL-28 = system: SK-MEL-28
# SK-MEL-2 = system: SK-MEL-2
# SK-MEL-5 = system: SK-MEL-5
# SK-OV-3 = system: SK-OV-3
# SN12C = system: SN12C
# SNB-19 = system: SNB-19
# SNB-75 = system: SNB-75
# SR = system: SR
# SW-620 = system: SW-620
# T47D = system: T47D
# TK-10 = system: TK-10
# U-251 = system: U-251
# UACC-257 = system: UACC-257
# UACC-62 = system: UACC-62
# UO-31 = system: UO-31
# RPMI-8226 = system: RPMI-8226
smiles,measurement,setting,value
CC(C)N(C(C)C)S(=O)(=O)CC12CCC(C/C1=N\O)C2 (stereo unspecified),GI50,786-0,> 100 µM (inactive)
same,GI50,A549,> 100 µM (inactive)
same,GI50,ACHN,> 100 µM (inactive)
same,GI50,BT-549,> 100 µM (inactive)
same,GI50,CAKI-1,> 100 µM (inactive)
same,GI50,CCRF-CEM,> 100 µM (inactive)
same,GI50,COLO 205,> 100 µM (inactive)
same,GI50,DU-145,> 100 µM (inactive)
same,GI50,EKVX,> 100 µM (inactive)
same,GI50,HCC 2998,> 100 µM (inactive)
same,GI50,HCT-116,> 100 µM (inactive)
same,GI50,HCT-15,> 100 µM
same,GI50,HL-60,> 100 µM (inactive)
same,GI50,HOP-62,> 100 µM (inactive)
same,GI50,HT-29,> 100 µM (inactive)
same,GI50,Hs-578T,> 100 µM (inactive)
same,GI50,IGROV-1,> 100 µM (inactive)
same,GI50,K562,> 100 µM (inactive)
same,GI50,KM12,> 100 µM (inactive)
same,GI50,LOX IMVI,> 100 µM (inactive)
same,GI50,M14,> 100 µM (inactive)
same,GI50,MCF7,> 100 µM (inactive)
same,GI50,MDA-MB-231,> 100 µM (inactive)
same,GI50,MDA-MB-435,> 100 µM (inactive)
same,GI50,MDA-N,> 100 µM (inactive)
same,GI50,MOLT-4,> 100 µM (inactive)
same,GI50,Malme-3M,> 100 µM (inactive)
same,GI50,NCI-H226,> 100 µM (inactive)
same,GI50,NCI-H23,> 100 µM (inactive)
same,GI50,NCI-H460,> 100 µM (inactive)
same,GI50,NCI-H522,> 100 µM (inactive)
same,GI50,NCI/ADR-RES,> 100 µM (inactive)
same,GI50,OVCAR-3,> 100 µM (inactive)
same,GI50,OVCAR-4,> 100 µM (inactive)
same,GI50,OVCAR-5,> 100 µM (inactive)
same,GI50,OVCAR-8,> 100 µM (inactive)
same,GI50,PC-3,> 100 µM (inactive)
same,GI50,RXF 393,> 100 µM (inactive)
same,GI50,SF-268,> 100 µM (inactive)
same,GI50,SF-295,> 100 µM (inactive)
same,GI50,SF-539,> 100 µM (inactive)
same,GI50,SK-MEL-28,> 100 µM (inactive)
same,GI50,SK-MEL-2,> 100 µM (inactive)
same,GI50,SK-MEL-5,> 100 µM (inactive)
same,GI50,SK-OV-3,> 100 µM (inactive)
same,GI50,SN12C,> 100 µM (inactive)
same,GI50,SNB-19,> 100 µM (inactive)
same,GI50,SNB-75,> 100 µM (inactive)
same,GI50,SR,> 100 µM (inactive)
same,GI50,SW-620,> 100 µM (inactive)
same,GI50,T47D,> 100 µM (inactive)
same,GI50,TK-10,> 100 µM (inactive)
same,GI50,U-251,> 100 µM (inactive)
same,GI50,UACC-257,> 100 µM (inactive)
same,GI50,UACC-62,> 100 µM (inactive)
same,GI50,UO-31,> 100 µM (inactive)
O=C(c1ccccc1)n1[nH]c(=O)n(-c2ccc(Cl)cc2)c1=O,GI50,786-0,> 100 µM (inactive)
same,GI50,A549,> 100 µM (inactive)
same,GI50,ACHN,> 100 µM (inactive)
same,GI50,BT-549,> 100 µM (inactive)
same,GI50,CAKI-1,> 100 µM (inactive)
same,GI50,CCRF-CEM,> 100 µM (inactive)
same,GI50,COLO 205,> 100 µM (inactive)
same,GI50,DU-145,> 100 µM (inactive)
same,GI50,EKVX,> 100 µM (inactive)
same,GI50,HCC 2998,> 100 µM (inactive)
same,GI50,HCT-116,> 100 µM (inactive)
same,GI50,HCT-15,> 100 µM
same,GI50,HL-60,> 100 µM (inactive)
same,GI50,HOP-62,> 100 µM (inactive)
same,GI50,HT-29,> 100 µM (inactive)
same,GI50,Hs-578T,> 100 µM (inactive)
same,GI50,IGROV-1,> 100 µM (inactive)
same,GI50,K562,> 100 µM (inactive)
same,GI50,KM12,> 100 µM (inactive)
same,GI50,LOX IMVI,> 100 µM (inactive)
same,GI50,M14,> 100 µM (inactive)
same,GI50,MCF7,> 100 µM (inactive)
same,GI50,MDA-MB-231,> 100 µM (inactive)
same,GI50,MDA-MB-435,> 100 µM (inactive)
same,GI50,MDA-N,> 100 µM (inactive)
same,GI50,MOLT-4,> 100 µM (inactive)
same,GI50,Malme-3M,> 100 µM (inactive)
same,GI50,NCI-H226,> 100 µM (inactive)
same,GI50,NCI-H23,> 100 µM (inactive)
same,GI50,NCI-H460,> 100 µM (inactive)
same,GI50,NCI/ADR-RES,> 100 µM (inactive)
same,GI50,OVCAR-3,> 100 µM (inactive)
same,GI50,OVCAR-4,> 100 µM (inactive)
same,GI50,OVCAR-5,> 100 µM (inactive)
same,GI50,OVCAR-8,> 100 µM (inactive)
same,GI50,PC-3,> 100 µM (inactive)
same,GI50,RPMI-8226,> 100 µM (inactive)
same,GI50,RXF 393,> 100 µM (inactive)
same,GI50,SF-268,> 100 µM (inactive)
same,GI50,SF-295,> 100 µM (inactive)
same,GI50,SK-MEL-28,> 100 µM (inactive)
same,GI50,SK-MEL-2,> 100 µM (inactive)
same,GI50,SK-MEL-5,> 100 µM (inactive)
same,GI50,SK-OV-3,> 100 µM (inactive)
same,GI50,SN12C,> 100 µM (inactive)
same,GI50,SNB-19,39 µM (inactive)
same,GI50,SNB-75,> 100 µM (inactive)
same,GI50,SR,> 100 µM (inactive)
same,GI50,SW-620,> 100 µM (inactive)
same,GI50,T47D,> 100 µM (inactive)
same,GI50,TK-10,> 100 µM (inactive)
same,GI50,U-251,> 100 µM (inactive)
same,GI50,UACC-257,> 100 µM (inactive)
same,GI50,UACC-62,> 100 µM (inactive)
same,GI50,UO-31,> 100 µM (inactive)
